The values that follow come from patent US20250136649A1, “HONEY TRUFFLE SWEETENER (HTS) VARIANTS” (MYCOTECHNOLOGY, INC., priority 2023, published 2025).

SMILES strings stand for the structures.

One assay concerns perception of the flavor. Put plainly: Tasting of HTS flavor modifying compositions in a mock beverage matrix. It is filed as in vivo, human. The conditions noted are these: pH about 3, 0.25% w/w lemon/lime flavor, erythritol 13.30% w/w, HTS 0.004 mg/mL. As to the method: HTS (0.004 mg/mL) and sucrose (10% w/w concentration) were added to a mock beverage matrix (citric acid, a flavor and carbonation). […] HTS and sucrose were added to hit a target of 10% w/w sucrose equivalent sweetness. The HTS/sucrose mixture was compared to an unsweetened control, an unsweetened control+0.004 mg/mL HTS, and a sucrose sweetened control (10% w/w concentration of sucrose).
HTS (0.004 mg/mL) and erythritol (13.3% w/w concentration) were added to a mock beverage matrix (citric acid, a flavor, and carbonation). […] HTS and erythritol were added to hit a target of 10% w/w sucrose equivalent sweetness. The HTS/erythritol mixture was compared to an unsweetened control, an unsweetened control+0.004 mg/mL HTS, and an erythritol sweetened control (13.3% w/w concentration).
HTS (0.004 mg/mL) and sucralose (0.0387% w/w concentration) were added to a mock beverage matrix (citric acid, a flavor, and carbonation). […] HTS and sucralose were added to hit a target of 10% w/w sucrose equivalent sweetness. The HTS/sucralose mixture was compared to an unsweetened control, an unsweetened control+0.004 mg/mL HTS, and a sucralose sweetened control (0.0387% w/w concentration).
HTS (0.004 mg/mL) and stevia (0.0395% w/w concentration) were added to a mock beverage matrix (citric acid, a flavor, and carbonation). […] HTS and stevia were added to hit a target of 10% w/w sucrose equivalent sweetness. […]

Assay [1] concerns sweetness and flavor perception. Put plainly: Tasting of HTS sweetener blends in citric acid solution, lemon/lime soda, almond milk, chocolate spread. It is filed as in vivo, human. As to the method:
Sucrose is the standard for sweetness intensity perception in the food and beverage industry. […] With regard to the following Examples 18-38, sucrose equivalent (SE) values of non-sucrose sweeteners were calculated from Dubois et al. (1991) and cross referenced with other studies (Wee, M., Tan, V., & Forde, C. (2018). A Comparison of Psychophysical Dose-Response Behaviour across 16 Sweeteners. Nutrients, 10 (11), 1632).
DE Walters, FT Orthoefer, GE DuBois, pp. 261-276. Washington, DC: Am. Chem. Soc).
An HTS sweetness concentration response curve was developed. These values were used to determine approximate sucrose equivalents for the following blending examples (Examples 18-37).
HTS ((0.0 mg/mL, 0.007 mg/mL, 0.015 mg/mL and 0.035 mg/mL) and sucrose (8% w/w, 6% w/w, 4% w/w, and 2% w/w (respectively)) were added to a citric acid solution. The sweetener mixture was compared to a control with only sucrose added to the matrix. The sweetener mix was expected to be as sweet as or sweeter than the sucrose control for this matrix. Of total perceived sweetness intensity in each of the experimental samples in Table 11, 75% comes from sucrose and 25% comes from HTS, 50% comes from sucrose and 50% comes from HTS, 25% comes from sucrose and 75% comes from HTS, respectively.
HTS ((0.0 mg/mL, 0.008 mg/mL, 0.023 mg/mL and 0.064 mg/mL) and sucrose (10% w/w, 7.5% w/w, 5% w/w, and 2.5% w/w (respectively)) were added to a lemon/lime soda. The sweetener mixture was compared to a control with only sucrose added to the matrix. The sweetener mix was expected to be as sweet as or sweeter than the sucrose control for this matrix. Of total perceived sweetness intensity in each of the experimental samples in Table 12, 75% comes from sucrose and 25% comes from HTS, 50% comes from sucrose and 50% comes from HTS, 25% comes from sucrose and 75% comes from HTS, respectively.
HTS ((0.0 mg/mL, 0.005 mg/mL, 0.007 mg/mL and 0.010 mg/mL) and sucrose (4% w/w, 3.0% w/w, 2% w/w, and 1.0% w/w (respectively)) were added to an unsweetened almond milk. The sweetener mixture was compared to a control with only sucrose added to the matrix. The sweetener mix was expected to be as sweet as or sweeter than the control for this matrix. Of total perceived sweetness intensity in each of the experimental samples in Table 13, 75% comes from sucrose and 25% comes from HTS, 50% comes from sucrose and 50% comes from HTS, 25% comes from sucrose and 75% comes from HTS, respectively.
HTS ((0.0 mg/mL, 0.008 mg/mL, 0.023 mg/mL and 0.064 mg/mL) and sucrose (45% w/w, 33.8% w/w, 23% w/w, and 11.3% w/w (respectively)) were added to a chocolate spread. The sweetener mixture was compared to a control with only sucrose added to the matrix. The sweetener mix was expected to be as sweet as or sweeter than the control for this matrix. Of total perceived sweetness intensity in each of the experimental samples in Table 14, 75% comes from sucrose and 25% comes from HTS, 50% comes from sucrose and 50% comes from HTS, 25% comes from sucrose and 75% comes from HTS, respectively.
HTS ((0.0 mg/mL, 0.007 mg/mL, 0.015 mg/mL and 0.035 mg/mL) and erythritol (11.43% w/w, 8.57% w/w, 5.71% w/w, and 2.86% w/w (respectively)) were added to a citric acid solution. The sweetener mixture was compared to a control with only erythritol added to the matrix. The sweetener mix was expected to be as sweet as or sweeter than the control for this matrix. Of total perceived sweetness intensity in each of the experimental samples in Table 15, 75% comes from erythritol and 25% comes from HTS, 50% comes from erythritol and 50% comes from HTS, 25% comes from erythritol and 75% comes from HTS, respectively.

In another assay the test system is sweet taste. To be noted: linear potency curve similar to sucrose (DuBois 1991); cited from earlier work.

For the compound `OC[C@@H](O)[C@@H](O)CO` [Erythritol, erythritol], the Observations entry with perception of the flavor is “More sour, bitter, mineral, mouth drying,”; in assay [1] (chocolate spread, erythritol w/w / HTS mg/mL: control 45%/0.0, 75/25 33.8%/0.008, 50/50 23%/0.023, 25/75 11.3%/0.064) it was “Brief initial sweetness, mouth cooling, cocoa”; in assay [1] (citric acid solution, erythritol w/w / HTS mg/mL: control 11.43%/0, 75/25 8.57%/0.007, 50/50 5.71%/0.015, 25/75 2.86%/0.035), “Reduced sour intensity compared to sucrose”; in assay [1] (lemon/lime soda, erythritol w/w / HTS mg/mL: control 13.30%/0.0, 75/25 9.31%/0.008, 50/50 6.90%/0.023, 25/75 3.10%/0.064) it was “Reduced citrus flavor intensity. Strong mouth”. Besides, the “potency curve multiplier relative to sucrose” value in the assay with sweet taste is on record as 0.7 ×.
